Values of other authors, collected in US20060134244A1, “Breast health supplement and detoxification preparations” (priority 2004, published 2006).

Experiments:
[1] = tested on: precancerous lesions of the cervix and laryngeal papillomas; conditions: pathologies with a human papillomavirus (HPV); reported
[2] = oral administration; reported

## OCc1c[nH]c2ccccc12 [Example I3C, indole-3-carbinol]
[1]
  clinical effectiveness in treating precancerous lesions of the cervix and laryngeal papillomas: clinically effective

## c1ccc2c(Cc3c[nH]c4ccccc34)c[nH]c2c1 [DIM, 3,3′-diindolylmethane]
[1]
  clinical effectiveness in treating precancerous lesions of the cervix and laryngeal papillomas: clinically effective

## O=C(O)CN(CCN(CC(=O)O)CC(=O)O)CC(=O)O [EDTA, ethylenediamine-N,N,N′,N′-tetraacetic acid]
[2]
  unabsorbed EDTA that remains within the digestive tract: 95%
